Results on eight molecules are retold here after US5510355A, “Depolarizing skeletal muscle relaxants” (priority 1994, dated 1996).

Counter-ions that a name gives are not always drawn. Like-named read-outs stand apart in the source and are kept apart here. Some results are limits rather than exact numbers.

Experiment [1] deals with T1, muscle-like nicotinic receptors (human clonal line TE671/RD) (Homo sapiens, UniProt P02708+P07510+Q07001).
T1 construct: these cells express muscle-like nicotinic receptors; endogenous in cells; host or cells: TE671/RD (human embryonal rhabdomyosarcoma line)
In words: cell-based. As to conditions: for Emax: read-out: HUMAN MUSCLE Emax (maximal activation as percentage of that induced by acetylcholine); for potency relative to succinylcholine, in words: comparison of EC50 values with Sample No. C-2; for efficacy relative to succinylcholine, in words: comparison of Emax values with Sample No. C-2. Here is the method:
(§1) The selectivity at muscle nicotinic receptors of the various analogs described in this invention was determined by their functional efficacies and potencies at muscle and ganglionic sites.
(§2) Intact cells on dishes were used for functional studies.
(§3) The medium was removed and ^86 Rb^+ was quantitated using Cerenkov detection. […] Specific ion efflux was determined as the difference in isotope efflux between total and non-specific efflux samples. Dose-response curves were plotted and the concentration resulting in half maximal activation of specific ion flux through nicotinic receptors determined for human muscle and rat ganglionic preparations (EC50).

Experiment [2] concerns ganglionic-type neuronal nicotinic receptors (rat pheochromocytoma clonal line PC12). It counts as cell-based. Here is the method:
as §1
Ganglionic effects were established on the rat pheochromocytoma clonal line PC12 which is a continuous clonal cell line of neural crest origin derived from a tumor of the rat adrenal medulla expressing ganglionic-type neuronal nicotinic receptors. […] Discussion concerning the heterogeneity of nicotinic receptors subtypes is set forth in Lukas et al., Internatl. […] See, Fornasari et al., Neurosci.
as §2, §3

[3] abbreviates: human muscle, TE671/RD, 86Rb+ efflux, 4 minutes at 20° C., read-out: HUMAN MUSCLE EC50 (concentration resulting in half maximal activation of specific ion flux).
[4] abbreviates: rat ganglia, PC12, 86Rb+ efflux, 4 minutes at 20° C.; read-out: RAT GANGLIA EC50 (concentration resulting in half maximal activation of specific ion flux).

T1 sequence (P07510 23-517): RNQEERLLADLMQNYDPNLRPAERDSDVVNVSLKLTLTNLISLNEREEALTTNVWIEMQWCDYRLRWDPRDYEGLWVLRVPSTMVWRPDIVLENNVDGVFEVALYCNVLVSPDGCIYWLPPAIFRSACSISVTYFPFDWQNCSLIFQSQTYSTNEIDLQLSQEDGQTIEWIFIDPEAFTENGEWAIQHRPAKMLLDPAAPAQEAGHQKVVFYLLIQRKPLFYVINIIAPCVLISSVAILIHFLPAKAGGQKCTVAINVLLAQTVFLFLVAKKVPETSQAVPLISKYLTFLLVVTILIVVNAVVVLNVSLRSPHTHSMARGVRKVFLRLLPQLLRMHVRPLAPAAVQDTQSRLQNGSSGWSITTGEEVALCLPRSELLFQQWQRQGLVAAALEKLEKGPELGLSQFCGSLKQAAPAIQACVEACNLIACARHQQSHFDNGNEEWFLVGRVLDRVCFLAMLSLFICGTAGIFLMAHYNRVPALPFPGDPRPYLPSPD
T1 sequence (P02708 21-457): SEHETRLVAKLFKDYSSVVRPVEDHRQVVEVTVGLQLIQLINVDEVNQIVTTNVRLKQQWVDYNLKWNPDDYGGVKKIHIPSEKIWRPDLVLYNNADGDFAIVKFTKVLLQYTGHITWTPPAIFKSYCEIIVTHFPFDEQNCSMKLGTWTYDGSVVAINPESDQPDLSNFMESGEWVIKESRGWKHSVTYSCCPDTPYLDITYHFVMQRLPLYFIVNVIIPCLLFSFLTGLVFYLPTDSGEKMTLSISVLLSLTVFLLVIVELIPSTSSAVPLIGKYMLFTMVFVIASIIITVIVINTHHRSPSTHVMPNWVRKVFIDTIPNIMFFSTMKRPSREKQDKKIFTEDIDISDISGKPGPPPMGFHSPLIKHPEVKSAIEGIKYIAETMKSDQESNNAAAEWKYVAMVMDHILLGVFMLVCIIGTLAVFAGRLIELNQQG
T1 sequence (Q07001 22-517): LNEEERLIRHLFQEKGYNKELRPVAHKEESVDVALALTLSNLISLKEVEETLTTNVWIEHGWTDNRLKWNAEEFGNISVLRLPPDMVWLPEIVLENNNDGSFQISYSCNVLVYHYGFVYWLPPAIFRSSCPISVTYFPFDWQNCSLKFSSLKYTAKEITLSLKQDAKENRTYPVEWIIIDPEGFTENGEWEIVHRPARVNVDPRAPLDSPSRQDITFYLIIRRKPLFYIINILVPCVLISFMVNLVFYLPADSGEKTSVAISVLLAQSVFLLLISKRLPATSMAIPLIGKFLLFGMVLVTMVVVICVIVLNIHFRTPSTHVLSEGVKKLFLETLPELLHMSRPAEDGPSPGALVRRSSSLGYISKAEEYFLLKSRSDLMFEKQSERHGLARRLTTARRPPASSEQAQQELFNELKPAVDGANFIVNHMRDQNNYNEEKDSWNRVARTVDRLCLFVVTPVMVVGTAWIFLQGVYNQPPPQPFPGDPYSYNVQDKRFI

As for `O=C(O)/C=C/C(=O)O.O=C(O)/C=C/C(=O)O.c1cncc(C2CC3CCN2CC3)c1` (racemic) [Sample No. 1, (+/-)-2-(3-pyridyl)-quinuclidine difumarate], the Emax (commonly the greatest response seen or fitted, relative to the assay's reference) in experiment [1] (TE671/RD) came to 130%. Also, the EC50 in experiment [1] (setting [3]) was found to be 0.055 µM. In experiment [1] (human muscle), the “potency relative to succinylcholine, in words” value is listed as “more potent” and the “efficacy relative to succinylcholine, in words” value is “more efficacious than succinylcholine”. Moreover, the “RAT GANGLIA Emax (maximal activation as percentage of that induced by acetylcholine)” value in experiment [2] came to 100%. For the same molecule, the “ganglionic effects, in words” value in experiment [2] (ganglionic-type receptors) was “only at relatively high concentrations”. For the same molecule, in experiment [2] (setting [4]), the EC50 was 2 µM.
As to `CC(=O)OCC1CC2CCN1CC2.[O-][Cl+3]([O-])([O-])O` (racemic) [Sample No. 4, (+/-)-2-acetoxymethylquinuclidine perchlorate], the Emax in experiment [1] (TE671/RD) worked out at 200%. The EC50 in experiment [1] (setting [3]) turned out to be 3 µM. In addition, in experiment [1] (human muscle), the “potency relative to succinylcholine, in words” value is “more potent” and the “efficacy relative to succinylcholine, in words” value is recorded as “more efficacious than succinylcholine”. Further, in experiment [2], the “RAT GANGLIA Emax (maximal activation as percentage of that induced by acetylcholine)” value came to 60%. Moreover, the “ganglionic effects, in words” value in experiment [2] (ganglionic-type receptors) is on record as “only at relatively high concentrations”. In addition, the EC50 in experiment [2] (setting [4]) amounted to 50 µM.
As to `Fc1cncc(C2CCCN2)c1` (racemic) [Sample No. 5, (+/-)-5-fluoronornicotine], in experiment [1] (TE671/RD), the Emax came out at 160%. Further, the EC50 in experiment [1] (setting [3]) was found to be 30 µM. In experiment [1] (human muscle), the “potency relative to succinylcholine, in words” value is listed as “at least as potent as succinylcholine” and the “efficacy relative to succinylcholine, in words” value was “more efficacious than succinylcholine”. The “RAT GANGLIA Emax (maximal activation as percentage of that induced by acetylcholine)” value in experiment [2] is given as less than 10%.
For `CN1CCCC1c1cncc(Cl)c1.[O-][Cl+3]([O-])([O-])O` (racemic) [Sample No. 6, (+/-)-5-chloronicotine perchlorate], in that order: 110%, 30 µM, “at least as potent as succinylcholine”, “more efficacious than succinylcholine” and 0%.
On to `CC(=O)OCC[N+](C)(C)C` [C-1, acetylcholine, reference compound], for which the “RAT GANGLIA Emax (maximal activation as percentage of that induced by acetylcholine)” value in experiment [2] came out at 100%.
For `Fc1cncc(C2=NCCCC2)c1` [Sample No. 2, 5-fluoroanabaseine dipicrate], the Emax in experiment [1] (TE671/RD) came out at 220%. Also, in experiment [1] (setting [3]), the EC50 was 1 µM. Moreover, in experiment [1] (human muscle), the “potency relative to succinylcholine, in words” value was “very potent relative to succinylcholine” and the “efficacy relative to succinylcholine, in words” value is given as “very efficacious relative to succinylcholine”. For the same molecule, the “RAT GANGLIA Emax (maximal activation as percentage of that induced by acetylcholine)” value in experiment [2] was 0%. Moreover, in experiment [2] (ganglionic-type receptors), the “ganglionic effects, in words” value is “no observed ganglionic effects”.
Molecule `c1cncc(C2=NCCCC2)c1` [Sample No. 3, anabaseine dihydrochloride] yielded an EC50 in experiment [1] of 2 µM. Also, the maximal effect (Emax) in experiment [1] (TE671/RD) was 200%. Moreover, in experiment [1] (human muscle), the “potency relative to succinylcholine, in words” value is “more potent” and the “efficacy relative to succinylcholine, in words” value was “more efficacious than succinylcholine”. In experiment [2] (ganglionic-type receptors), the “ganglionic effects, in words” value is on record as “only at relatively high concentrations”. For the same molecule, the “RAT GANGLIA Emax (maximal activation as percentage of that induced by acetylcholine)” value in experiment [2] (rat ganglia, PC12, % of acetylcholine maximum) worked out at 80%. For the same molecule, in experiment [2] (read-out: RAT GANGLIA EC50 (concentration resulting in half maximal activation of specific ion flux); rat ganglia, PC12, 86Rb+ efflux, 4 minutes at 20° C.), the EC50 was found to be 50 µM.
Consider `C[N+](C)(C)CCOC(=O)CCC(=O)OCC[N+](C)(C)C` [Sample No. C-2, succinylcholine chloride, reference compound], for which, in experiment [1] (TE671/RD), the Emax was 95%. In addition, the EC50 in experiment [1] (setting [3]) is 30 µM. Besides, the “RAT GANGLIA Emax (maximal activation as percentage of that induced by acetylcholine)” value in experiment [2] stood at 0%.
